According to US7642252B2, “Angiogenesis inhibition by cephalotaxine alkaloids, derivatives, compositions and uses thereof” (Chemgenex Pharmaceuticals, Inc., priority 2002, dated 2010):
Marks after values point to notes of the source that are not given here.

Experiments:
[1] = system: chorioallantoic membrane (CAM); test: Early chicken chorioallantoic membrane (CAM) assay of angiogenesis; type: in vivo; settings: for CAM increase (fold): Day 4 to Day 5
Protocol: Fertilized chicken eggs (HiChick Breeding Co, Kapunda, South Australia) were incubated for three days at 38° C. On Day 3 the embryos were cracked out of the egg and into a cup made of plastic piping, with plastic film stretched over the top to form a hammock for the egg to be suspended in. Two ml of DMEM containing penicillin and streptomycin was added to each cup prior to the egg being added. A Petri dish on the top maintained sterility. Incubation continued in a humidified 37° C. incubator.
On Day 4 the chorioallantoic membrane (CAM) begins to grow, and pictures were taken of each embryo at ×5 to measure the CAM area using image analysis software (Video Pro 32, Leading Edge Pty Ltd, South Australia). Embryos were then grouped according to their CAM area, with a control embryo in each for comparison. There were four matched embryos, treated with 6.25, 12.5 and 25 ng of homoharringtonine. Grouping is critical as in these early developmental stages changes in the CAM growth are dramatic. Relatively small differences in size on Day 4 translate to large differences in the CAM on Day 5, making it impossible to compare treatments. Substances were applied in methylcellulose discs, which were first dried under vacuum overnight. The methylcellulose discs were applied to the top of the CAM, and at the beginning of treatment were at least three to four-fold bigger than the CAM area, meaning treatment covered the entire CAM surface.
On Day 5 skim milk with contrast medium was injected into the CAM. Pictures were then taken at various levels of magnification up to ×63. Quantitative measurements were made from ×5 pictures. CAM area, and vein and artery lengths were measured using image analysis (Video Pro 32, Leading Edge Pty Ltd, South Australia). Relative vessel lengths were then calculated as the total length/CAM area. Statistical analysis was made using SigmaStat and OneWay ANOVA with p<0.05 as the level of significance.
The normal organization of the CAM is uniform, with the major vein draining towards the left, and the artery branches coming over the edge of the top and bottom of the CAM. FIG. 3 schematically illustrates tracing of the vein and artery branches, as performed for the measurement of vessel lengths.
The angiogenic inhibitor, homoharringtonine, was obtained from ChemGenex Therapeutics, Inc. (Menlo Park, Calif.) and was made to the appropriate concentration in sterile water. […] Homoharringtonine was applied at 6.25, 12.5 and 25 ng (11.3, 22.5 and 45 nM) doses, and compared with water treated controls. Homoharringtonine reduced the growth of the CAM to 42% of the control in the 25 ng treated CAM. […] The vein, artery and total vessel lengths were reduced to 15%, 18% and 17% of control, respectively.

[2] = system: chorioallantoic membrane (CAM); test: as above; type: in vivo; settings: taxol treated CAM, dose not given
[3] = 6.25 ng, Day 5, mean ± SEM, n = 6
[4] = 25 ng, Day 5, mean ± SEM, n = 6

SMILES | CAM increase (fold) ([1]; 6.25 ng, mean ± SEM, n = 6) | Artery length [1, 3] [pixels] | Relative artery length [1, 3] | Relative total vessel length [1, 3] | Relative vein length [1, 3] | Vein length [1, 3] [pixels] | Relative artery length ([1]; 12.5 ng, Day 5, mean ± SEM, n = 6) | Embryo lethality ([1]; 25 ng dose) | CAM increase (fold) ([1]; 25 ng, mean ± SEM, n = 6) | Artery length [1, 4] | Total vessel length [1, 4] | Vein length [1, 4] | Embryo lethality ([1]; initial doses (higher than 25 ng, not given)) | Qualitative changes of CAM at higher magnification (FIG. 5) [2]
COC(=O)C[C@](O)(CCCC(C)(C)O)C(=O)O[C@@H]1C(OC)=C[C@]23CCCN2CCc2cc4c(cc2[C@H]13)OCO4 [Homoharringtonine, cephalotaxine, 4-methyl-2-hydroxy-2-(4-hydroxy-4-methylpentyl) butanediocate ester] | 7.0 ± 0.4^a fold | 1573 ± 516 | 31.6 ± 4.5^ab length/CAM area | 63.2 ± 7.7^b length/CAM area | 31.6 ± 4.6^b length/CAM area | 1482 ± 499 | 31.8 ± 3.7^ab length/CAM area | killed one of the smaller embryos | 4.3 ± 0.7^a fold | 551 ± 265^a pixels | 909 ± 396^a pixels | 359 ± 143^a pixels | resulted in the death of the embryos | –
CC(=O)O[C@H]1C(=O)[C@@]2(C)[C@H]([C@H](OC(=O)c3ccccc3)[C@]3(O)C[C@H](OC(=O)[C@H](O)[C@@H](NC(=O)c4ccccc4)c4ccccc4)C(C)=C1C3(C)C)[C@]1(OC(C)=O)CO[C@@H]1C[C@@H]2O [taxol] | – | – | – | – | – | – | – | – | – | – | – | – | – | diffuse leakage of the red blood cells outside the vessels and the skeletons of larger vessels with no remaining blood flow
